{"source": "patent US20250020635A1", "about": "“ASSAY METHODS AND USES THEREOF FOR SCREENING ALZHEIMER'S DISEASE TREATMENT COMPOUNDS” (priority 2023, published 2025)", "target": "T1, PLCγ2-HiBit (Homo sapiens, UniProt P16885)", "T1 construct": "expressed in transfected cells; host or cells: HMC3 cells", "T1 sequence (P16885 1-1265)": "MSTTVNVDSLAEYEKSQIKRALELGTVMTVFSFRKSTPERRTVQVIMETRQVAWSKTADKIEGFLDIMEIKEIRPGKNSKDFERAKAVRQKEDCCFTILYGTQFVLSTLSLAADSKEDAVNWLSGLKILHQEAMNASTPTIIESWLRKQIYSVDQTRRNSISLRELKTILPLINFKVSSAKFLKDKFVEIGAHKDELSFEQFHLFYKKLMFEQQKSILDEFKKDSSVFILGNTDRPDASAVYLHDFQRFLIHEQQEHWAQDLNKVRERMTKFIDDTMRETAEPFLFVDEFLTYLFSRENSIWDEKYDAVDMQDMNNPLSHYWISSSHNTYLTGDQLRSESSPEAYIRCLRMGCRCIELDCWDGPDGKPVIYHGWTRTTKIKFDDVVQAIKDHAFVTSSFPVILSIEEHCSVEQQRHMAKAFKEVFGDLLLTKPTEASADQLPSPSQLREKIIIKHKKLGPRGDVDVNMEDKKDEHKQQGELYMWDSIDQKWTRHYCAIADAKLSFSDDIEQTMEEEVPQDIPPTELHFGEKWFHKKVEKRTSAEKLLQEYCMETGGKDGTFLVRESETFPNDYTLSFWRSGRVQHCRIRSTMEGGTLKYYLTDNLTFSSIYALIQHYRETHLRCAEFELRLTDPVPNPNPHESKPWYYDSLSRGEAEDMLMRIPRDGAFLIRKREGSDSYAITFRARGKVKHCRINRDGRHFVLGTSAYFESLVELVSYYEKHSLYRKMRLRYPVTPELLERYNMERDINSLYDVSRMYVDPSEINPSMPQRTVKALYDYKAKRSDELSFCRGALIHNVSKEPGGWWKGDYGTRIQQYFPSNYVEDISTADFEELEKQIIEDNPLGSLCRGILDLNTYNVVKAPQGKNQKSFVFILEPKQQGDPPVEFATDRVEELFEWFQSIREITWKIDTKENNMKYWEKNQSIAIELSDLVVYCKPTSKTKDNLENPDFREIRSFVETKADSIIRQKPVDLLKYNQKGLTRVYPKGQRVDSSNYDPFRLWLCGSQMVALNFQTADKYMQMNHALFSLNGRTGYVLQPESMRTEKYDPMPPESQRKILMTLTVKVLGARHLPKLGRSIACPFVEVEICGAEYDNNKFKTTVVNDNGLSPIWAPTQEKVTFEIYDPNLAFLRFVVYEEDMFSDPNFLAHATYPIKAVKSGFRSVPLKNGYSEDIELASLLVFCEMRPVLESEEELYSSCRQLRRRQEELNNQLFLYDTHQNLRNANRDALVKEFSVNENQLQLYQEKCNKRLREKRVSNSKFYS", "test": "Cellular thermal shift assay (SplitLuc CETSA), PLCγ2-HiBit in HMC3 cells", "format": "cell-based", "details": "for PLCγ2-HiBit %, percent luminescence at highest dose compared to control (DMSO): 100 μM", "excerpt": "These compounds have been evaluated using a wide variety of assay classes namely target engagement utilizing cellular thermal shift assay (CETSA),^34 affinity selection mass spectrometry (ASMS),^35 biochemical activity employing the fluorogenic probe XY-69,^36 and cellular activity testing for phagocytosis. Cellular Thermal Shift Assays (CETSA) assess cellular target engagement by quantifying changes in protein thermal stability upon ligand binding to endogenous proteins in intact cells.^34 For SAR studies, a split Nano Luciferase (SplitLuc CETSA) version of the assay was utilized to provide sufficient throughput.^37,38 HMC3 cells were stably transfected with PLCγ2-HiBit to enable protein expression in a physiologically relevant cellular context. The thermal stability of this HiBit-labeled protein in intact cells was measured in the following two formats. In the initial screen, using 96-well plates, cells were treated with FBS analogs at a single concentration (100 μM) at 37° C. for 60 min and then exposed to a 3-minute isothermal heating step at 45.9° C. (experimentally determined Tm of PLCγ2-HiBit). Luminescence detection was then conducted with the Nano-Glo HiBit Lytic detection kit (Promega, Cat. N3040).^38 Compound treatment was performed in triplicate, and raw signals were normalized to the mean of the controls (in the same plate) as % of control. When the difference in compound-treated cells >control mean+3SD, the compound was considered positive and selected for further testing with dose-response CETSA. In the dose response CETSA, cells were treated with decreasing concentrations from 100 μM with 1:3 serial dilutions to generate an 8-point curve. An AC50 was calculated with the % of control data using a four-parameter logistic curve regression model, and the percent luminescence remaining at the highest concentration is also reported for the compounds when the difference from the DMSO control is greater than 3× the standard deviation (SD). Otherwise, an AC50 was not calculated.", "note": "Like-named read-outs stand apart in the source and are kept apart here.", "data": [{"molecule": "Cc1cc(C)c(S(=O)(=O)NC2CCCNC2)c(C)c1", "note": "(stereo not drawn) [Compound 11]", "values": [{"measurement": "PLCγ2-HiBit %, percent luminescence at highest dose compared to control (DMSO)", "value": 64, "unit": "%"}]}, {"molecule": "Cc1cc(C)c(S(=O)(=O)Nc2cccc(C(F)(F)F)c2)c(C)c1", "note": "[Compound 1, 2,4,6-trimethyl-N-(meta-3-trifluoromethyl-phenyl)-benzenesulfonamide, reference compound]", "values": [{"measurement": "PLCγ2-HiBit %, percent luminescence at highest dose compared to control (DMSO)", "value": 105, "unit": "%"}, {"measurement": "PLCy2-HiBit % @100", "setting": "Table 1", "value": 105, "unit": "%"}]}, {"molecule": "O=S(=O)(Nc1ccc(Br)cc1F)c1cccs1", "note": "[Compound 8]", "values": [{"measurement": "PLCγ2-HiBit %, percent luminescence at highest dose compared to control (DMSO)", "value": 66, "unit": "%"}, {"measurement": "PLCy2-HiBit % @100", "setting": "Table 1", "value": 66, "unit": "%"}, {"measurement": "AC50", "setting": "Table 1, CETSA dose response, read-out: AC50", "value": "> 100", "unit": "µM"}, {"measurement": "AC50", "setting": "Table 5, 8-point dose response from 100 μM, HMC3 cells, 45.9° C., read-out: AC50, concentration that induced a half-maximum loss of luminesce compared to control", "value": "> 100", "unit": "µM"}]}, {"molecule": "Cc1cc(C)c(S(=O)(=O)Nc2ccccc2C(F)(F)F)c(C)c1", "note": "[Compound 2, o-3M3FBS, reference compound]", "values": [{"measurement": "PLCγ2-HiBit %, percent luminescence at highest dose compared to control (DMSO)", "value": 102, "unit": "%"}, {"measurement": "PLCy2-HiBit % @100", "setting": "Table 1", "value": 102, "unit": "%"}]}]}
